Data from patent publication US20200003760A1, “IN-VITRO METHODS FOR CLASSIFYING DRUGS ACCORDING TO THEIR POTENTIAL TO CAUSE LIVER CELL INJURY” (Board of Trustees of Michigan State University, priority 2018, published 2020).
Entries after “also recorded” stand apart in the source; their conditions may differ. Like-named read-outs stand apart in the source and are kept apart here.

Tests used:
[1] = maximal plasma concentration after pharmacologic dosing in human patients; cited from earlier work
HepG2 cells = assay: Drug/cytokine-induced cytotoxicity (% LDH release) concentration-response in HepG2 cells; format: cell-based, human; parameters: key to Deltadiff: LDH release percentage points (drug/TNF Delta minus drug/VEH Delta); details: for R10 IFN: with IFN; for R10 TNF: with TNF; for R10 TNF/IFN / EC10 TNF/IFN: with TNF and IFN; for Deltadiff: Delta of drug/TNF curve minus Delta of drug/VEH curve (LDH percentage); for Emax / D10 (LDH rise of at least 10 points, yes/no): Homo sapiens; for TNF change: D10TNF − D10VEH; for cytotoxic interaction of drug with TNF / effect of IFN coexposure on the drug/TNF cytotoxic interaction / cytotoxicity of drug on its own (LDH release) / synergy with cytokines to kill HepG2 cells: HepG2, 24 h; for cytotoxic interaction of drug with TNF: TNF 10 ng/ml; for effect of IFN coexposure on the drug/TNF cytotoxic interaction: TNF and IFN 10 ng/ml each; for cytotoxicity of drug on its own (LDH release): absence of cytokines; for EC10 TNF / EC10 TNF/IFN / EC10 IFN: value corresponding to 10% of Delta; for EC10 TNF: with TNF 10 ng/ml; for EC10 TNF / EC10 TNF/IFN / EC10 / EC10 IFN: NA = no significant increase; for synergy with cytokines to kill HepG2 cells: TNF and/or IFN; for EC10: value corresponding to 10% of Delta (max-min); for EC10 IFN: with IFN 10 ng/ml
Method: Cells were passed or used for experiments when they reached approximately 80% confluence. Cells were used at passage 6-16.
HepG2 cells were plated at a density of 4×10^4 cells per well in black-walled, 96-well, tissue culture plates and were allowed to attach overnight before being treated with compounds. Drugs were reconstituted in vehicles consisting of sterile water or DMSO (concentration less than 0.5%). Cells were treated with various concentrations of the drug or its vehicle (control) alone or in combination with the cytokines TNF (10 ng/ml) and/or IFN (10 ng/ml) or their PBS vehicle (VEH). Cytotoxicity was evaluated as lactate dehydrogenase (LDH) activity released from the cells into culture medium using the Homogeneous Membrane Integrity Assay kit from Promega (Madison, Wis.).
Concentration-response curves were generated for 24 drugs, 14 of which are associated with human IDILI and 10 of which are not. […] This was necessary because four-parameter logistic modeling used in the statistical analysis requires well defined, sigmoidal concentration-response curves. Cells were exposed to drug/cytokine combinations for 24 hours. For analysis of drug concentration-response data, concentrations of each drug were expressed as a fraction of its Cmax.
Defining covariates: four-parameter logistic model. In the first phase, variables (potential covariates) for use in the classification analysis were defined from the analysis of drug concentration-response data. Initially, a one-way analysis of variance (ANOVA) was used as an omnibus test to determine if a particular treatment (e.g. drug alone or in combination with TNF and/or IFN) caused a significant change in LDH release relative to baseline (i.e., LDH release in the absence of drug, hereafter designated “min”). The criterion for significance for the ANOVA was set at α=0.01. A 1% level of significance was used to rule out more vigorously marginal relationships between concentration and response.
where LDH(x) is the percentage of LDH released at a given concentration x; x=[drug]/Cmax; min=the % LDH release at 0 drug concentration (i.e., baseline); and max=the maximal LDH response (i.e., maximum % LDH release).
where D10 is a categorical variable related to reaching a threshold LDH response above which a drug is classified as positively associated with IDILI. D10 is defined as 0 if Delta<10% LDH release and as 1 if Delta≥10% LDH release.
The base covariate R10 represents the [drug]/Cmax value associated with an increase in 10 LDH percentage points above min for a particular treatment condition and was determined by the equation:
R10 was considered to be 0 when the Delta<10% LDH (i.e. when D10=0).
EC50 quotient, EC10 quotient and R10 quotient represent the ratio between the EC50, EC10 or R10 of the drug/cytokine concentration-response curve and the respective value for the drug/VEH concentration-response curve. In some instances, the value derived from this calculation is indeterminate (i.e. when the denominator=0). In order to incorporate the quotient values into the classification models described below, the categorical variable “Q” was used to eliminate the possibility of the quotient being indeterminate. Q is defined as 0 if Delta VEH and/or Delta cytokine is <10% LDH and 1 if both Delta VEH and Delta cytokine are ≥10% LDH. […] The same condition was applied for calculation of EC10 quotient and R10 quotient.
Deltadiff represents the difference between the Delta of the drug/cytokine concentration-response curve and the Delta of the drug/VEH curve. In other words, Deltadiff=(Delta cytokine)−(Delta VEH). FIG. 1 graphically illustrates several of the covariates defined above. […] In addition to the covariates derived from the concentration-response curves, the maximal therapeutic plasma drug concentration (Cmax) in human patients was used in some models (Table 1).

[2] = cited from earlier work; for True classification: IDILI in human patients; for IDILI liability: criteria of Xu et al. (2008)
[3] = 10 percent increase in LDH response above min, 0 when D10 = 0, drug alone (VEH)
[4] = 10 percent increase in LDH response above min, 0 when D10 = 0
[5] = HepG2, categorical, Delta threshold 10 LDH percentage points, drug alone (VEH), read-out: D10
[6] = HepG2, maximal LDH response, drug alone (VEH), 24 h, read-out: max
[7] = HepG2, categorical, Delta threshold 10 LDH percentage points, drug alone (VEH)

Structure (SMILES)	Cmax [1] [nM]	R10 (HepG2 cells; [3])	R10 IFN (HepG2 cells; [4])	R10 TNF (HepG2 cells; [4])	R10 TNF/IFN (HepG2 cells; [4])	Deltadiff (HepG2 cells)	Emax (HepG2 cells; [5]) [%]	Emax (HepG2 cells; [6]) [%]	TNF change (HepG2 cells; categorical)	True classification [2]	IDILI liability [2]	cytotoxic interaction of drug with TNF (HepG2 cells)	cytotoxicity of drug on its own (LDH release) (HepG2 cells)	EC10 TNF (HepG2 cells)	EC10 TNF/IFN (HepG2 cells)	EC10 (HepG2 cells; drug alone (VEH))	EC10 IFN (HepG2 cells)	further results
O=C1CC2(CCCC2)CC(=O)N1CCCCN1CCN(c2ncccn2)CC1 [Buspirone]	5	0 [drug]/Cmax	0 [drug]/Cmax	0 [drug]/Cmax	0 [drug]/Cmax	0	< 10	17.6	0	IDILI−	IDILI−							
O=C(O)Cc1ccccc1Nc1c(Cl)cccc1Cl [Diclofenac]			0 [drug]/Cmax	28.3 [drug]/Cmax	26.7 [drug]/Cmax	21.0		15.6	1			synergized with TNF to cause cytotoxicity	caused no cytotoxicity on their own	23.9 [drug]/Cmax	23.2 [drug]/Cmax			R10 (HepG2 cells): 0 [drug]/Cmax; effect of IFN coexposure on the drug/TNF cytotoxic interaction (HepG2 cells): coexposure to IFN enhanced the cytotoxic interaction; Emax (HepG2 cells; HepG2, read-out: D10): < 10%
CC(C)C(=O)Nc1ccc([N+](=O)[O-])c(C(F)(F)F)c1 [Flutamide]	360	0 [drug]/Cmax	0 [drug]/Cmax	0 [drug]/Cmax	0 [drug]/Cmax	0.4	< 10	24.6	0	IDILI+	IDILI+	very small but statistically significant increases in LDH release	statistically significant increase in LDH release; also recorded: very small but statistically significant increases in LDH release					synergy with cytokines to kill HepG2 cells (HepG2 cells): did not synergize with cytokines to kill HepG2 cells
CC(C)Cc1ccc(C(C)C(=O)O)cc1 (stereo not shown) [Ibuprofen]	164000	51.7 [drug]/Cmax	51.3 [drug]/Cmax	14.4 [drug]/Cmax	15.5 [drug]/Cmax	3.9	> 10	101	0			TNF significantly enhanced the cytotoxicity	statistically significant increase in LDH release	14.1 [drug]/Cmax	14.6 [drug]/Cmax	50.9 [drug]/Cmax	50.7 [drug]/Cmax	
C[C@H]1COc2c(N3CCN(C)CC3)c(F)cc3c(=O)c(C(=O)O)cn1c23 [Levofloxacin]	15700	0 [drug]/Cmax	0 [drug]/Cmax	0 [drug]/Cmax	0 [drug]/Cmax	0	< 10	14	0									
COc1c(N2C[C@@H]3CCCN[C@@H]3C2)c(F)cc2c(=O)c(C(=O)O)cn(C3CC3)c12 [Moxifloxacin]	6200	0 [drug]/Cmax	0 [drug]/Cmax	0 [drug]/Cmax	0 [drug]/Cmax	0	< 10	9.7	0									
CCc1ccc(CCOc2ccc(CC3SC(=O)NC3=O)cc2)nc1 (stereo not shown) [Pioglitazone]	2670	80.1 [drug]/Cmax	84.6 [drug]/Cmax	84.5 [drug]/Cmax	87.3 [drug]/Cmax	0.8		44.1	0	IDILI−	IDILI−		caused cytotoxicity on its own	72.8 [drug]/Cmax	81.8 [drug]/Cmax	71.4 [drug]/Cmax	74.2 [drug]/Cmax	synergy with cytokines to kill HepG2 cells (HepG2 cells): not enhanced by the addition of cytokines; D10 (LDH rise of at least 10 points, yes/no) (HepG2 cells; [7]): > 10%
CC[C@H]1OC(=O)[C@H](C)C(=O)[C@H](C)[C@@H](O[C@@H]2O[C@H](C)C[C@H](N(C)C)[C@H]2O)[C@](C)(OC)C[C@@H](C)C(=O)[C@H](C)[C@H]2N(CCCCn3cnc(-c4cccnc4)c3)C(=O)O[C@]12C [Telithromycin]	2770	76.6 [drug]/Cmax	81.3 [drug]/Cmax	50.5 [drug]/Cmax	39.3 [drug]/Cmax	−17.1		117	0	IDILI+	IDILI+	TNF significantly enhanced the cytotoxicity	statistically significant increase in LDH release	47.7 [drug]/Cmax	39.0 [drug]/Cmax	77.0 [drug]/Cmax	80.7 [drug]/Cmax	effect of IFN coexposure on the drug/TNF cytotoxic interaction (HepG2 cells): coexposure to IFN enhanced the cytotoxic interaction; D10 (LDH rise of at least 10 points, yes/no) (HepG2 cells; [7]): > 10%
